# Several values for one entry are separate records, joined by “and”; a condition that tells them apart may be missing. Identical values can stand only once.
# Experiments:
# [1] = system: burn/tenotomy mice; assay: Burn/tenotomy trauma-induced HO model (microCT, histology, immunostaining); assay type: in vivo, mouse; details: 9 weeks
# [2] = system: caACVR1fl/fl mice injected with cardiotoxin and Ad.cre; details: mouse, in vivo
compound,measurement,setting,value
CO[C@H]1C[C@@H]2CC[C@@H](C)[C@@](O)(O2)C(=O)C(=O)N2CCCC[C@H]2C(=O)O[C@H]([C@H](C)C[C@@H]2CC[C@@H](O)[C@H](OC)C2)CC(=O)[C@H](C)/C=C(\C)[C@@H](O)[C@@H](OC)C(=O)[C@H](C)C[C@H](C)/C=C/C=C/C=C/1C [rapamycin],de novo (soft tissue) HO volume,"[1]; rapamycin 5 mg/kg i.p. every other day, control 1.60 mm^3",0.81 mm^3
same,de novo (soft tissue) HO normalized volume,"[1]; rapamycin 5 mg/kg i.p., control = 1.0",0.51
same,total HO normalized volume,[2],0.0
same,total HO volume,[2],0.00 mm^3 and 0.0 mm^3

# Reference: US10953028B2, “Method of treating heterotopic ossification” (THE REGENTS OF THE UNIVERSITY OF MICHIGAN, priority 2015, dated 2021)
